Experimental data as given in EP4038084B1, “LIPOPEPTIDES, PHARMACEUTICAL COMPOSITION, COSMETIC COMPOSITION, AND LIPOPEPTIDES FOR USE AS A DRUG” (priority 2019, dated 2021).
Values after ≈ are worked out from the molar mass of the structure shown. “Also recorded” adds a separate entry of the source. Where a SMILES comes first, the peptide text is derived from it. [ ]: non-standard residue; d: D form. The star is where a group is joined. Palmitoyl = CCCCCCCCCCCCCCCC(=O)*; Myristoyl = CCCCCCCCCCCCCC(=O)*; Lauroyl = CCCCCCCCCCCC(=O)*; Dab = NCC[C@H](N)C(=O)O

Experiments:
[1] = system: Staphylococcus epidermidis ATCC 12228; settings: LB medium, 24 h at 30°C, OD 600 nm not greater than 0.05
[2] = system: Salmonella sv. Typhimurium TT622; assay: Determination of the minimal inhibitory concentration (MIC); format: cell-based; settings: LB medium, 24 h at 30°C, OD 600 nm not greater than 0.05
Procedure: (§1) Typhimurium TT622, and Yersinia enterocolitica PCM 2081. All strains were cultured in LB (lysogenic broth) medium.
(§2) The test compounds were dissolved in water. […] Data were obtained from three independent experiments.

[3] = system: Klebsiella pneumoniae PCM 1; assay: Lipopeptide effect on the bacterial growth dynamics; format: cell-based; settings: OD 600 nm every 60 min for 6 h after 2 h pre-incubation
Procedure: as §1
(§3) The effect of different concentrations of the test compounds on the bacterial growth was tested on 3 Gram-negative bacterial strains: Klebsiella pneumoniae PCM 1, Pseudomonas aeruginosa PAO1 PCM 499, and Yersinia enterocolitica PCM 2081 and one Gram-positive strain: Staphylococcus aureus ATCC 29213. The experiment was carried out in a similar way to the MIC determination, but in this case the diluted overnight cultures were pre-incubated for 2 h before adding diluted lipopeptide preparations. The bacterial growth was then monitored by measuring the optical density of the culture at 600 nm every 60 min for 6 h. Data were obtained from three independent experiments. The measurement results are shown as graphs in Figs. 1-3.

[4] = system: Yersinia enterocolitica PCM 2081; assay: as above; format: cell-based; settings: OD 600 nm every 60 min for 6 h after 2 h pre-incubation
Procedure: as §1, §3

[5] = system: Pseudomonas aeruginosa PAO1 PCM 499; assay: as above; format: cell-based; settings: OD 600 nm every 60 min for 6 h after 2 h pre-incubation
Procedure: as §1, §3

[6] = system: Klebsiella pneumoniae PCM 1; format: cell-based; settings: LB medium, 24 h at 30°C, OD 600 nm not greater than 0.05
Procedure: as §1, §2

[7] = system: Escherichia coli ST2-8624 O157:H7; format: cell-based; settings: LB medium, 24 h at 30°C, OD 600 nm not greater than 0.05
Procedure: as §1, §2

[8] = system: Enterococcus faecalis ATCC 14506; format: cell-based; settings: LB medium, 24 h at 30°C, OD 600 nm not greater than 0.05
Procedure: as §1, §2

[9] = system: Pseudomonas aeruginosa PAO1 PCM 499; format: cell-based; settings: LB medium, 24 h at 30°C, OD 600 nm not greater than 0.05
Procedure: as §1, §2

Horse red blood cells = format: cell-based
Procedure: (§4) Defibrinated sheep or horse blood was washed three times in PBS buffer (137 mM NaCl, 2.7 mM KCl, 8 mM Na2HPO4, 2 mM KH2PO4, pH 7.4) and diluted to obtain 2% (v/v) preparation of red blood cells (RBC). […] The experiment was performed by adding 190 µL of 2% RBC preparation to 10 µL of each of the prepared lipopeptide dilutions in the wells of a 96-well titer plate. As a positive control, Triton X-100 (2% final concentration) was used, instead of test compound preparations, and PBS buffer was used as a negative control. The samples were then incubated for 30 min at 30°C with shaking. After this time, the plate was centrifuged (1200 rpm) and 150 µL of the supernatant was transferred per well to another titration plate and the absorbance at 415 nm was measured using TECAN Sunrise plate reader. Based on the obtained results, the concentration of lipopeptides was determined at which up to 50% of hemolysis occurs in comparison with the positive control (HC50). Data were obtained from three independent experiments. The measurement results are shown in Table 3 and in the form of graphs in Figs. 7 and 8.

Sheep red blood cells = format: cell-based
Procedure: as §4

[10] = system: Staphylococcus aureus ATCC 29213; settings: LB medium, 24 h at 30°C, OD 600 nm not greater than 0.05
[11] = system: Yersinia enterocolitica PCM 2081; settings: LB medium, 24 h at 30°C, OD 600 nm not greater than 0.05
Source text: All bacterial strains were obtained from the Polish Collection of Microorganisms (PCM) or the American Type Culture Collection (ATCC). Gram-positive bacteria strains: Staphylococcus aureus ATCC 29213, Staphylococcus epidermidis ATCC 12228, and Enterococcus faecalis ATCC 14506. Gram-negative bacteria strains: Escherichia coli ST2-8624 O157:H7, Pseudomonas aeruginosa PAO1 PCM 499, Klebsiella pneumoniae PCM 1, Salmonella sv. Typhimurium TT622, and Yersinia enterocolitica PCM 2081. All strains were cultured in LB (lysogenic broth) medium.
10 mL of LB medium was inoculated with material from a single colony and cultured at 30°C overnight with shaking. Thereafter, the optical density of the overnight cultures (at 600 nm) was adjusted to 0.05 by dilution in a fresh portion of LB medium. The test compounds were dissolved in water. Serial dilutions of compounds were prepared in LB medium ranging from 5 to 50 µg/mL (final concentrations). The experiment was performed by adding 100 µL of each of the prepared dilutions to 100 µL of the diluted overnight bacterial culture in the wells of a 96-well titration plate. […] Optical density measurements were performed using TECAN Sunrise plate reader. Data were obtained from three independent experiments.

Structure (SMILES) | MIC [1] [mg/L] | MIC [2] | effect on the bacterial growth dynamics [3] | effect on the bacterial growth dynamics [4] | effect on the bacterial growth dynamics [5] | MIC [6] | MIC [7] | MIC [8] | MIC [9] | HC50 (Horse red blood cells) [µg/mL < HC50< 40 µg/mL] | HC50 (Sheep red blood cells) [µg/mL < HC50< 40 µg/mL] | MIC [10] [mg/L] | MIC [11] [mg/L]
CCCCCCCCCCCC(=O)N[C@H](Cc1ccccc1)C(=O)N[C@@H](CCN)C(=O)N[C@@H](CCN)C(=O)N[C@@H](CC(C)C)C(N)=O [C12-fXXL, CH3(CH2)10C(O)-D-Phe-Dab-Dab-Leu-NH2] (Lauroyl-[dF][Dab][Dab]L-NH2) | 5 (≈ 7.58 µM) | n.d. (n.d. = not determined, i.e., the MIC value was greater than 50 µg/mL) | slowed down the bacterial growth dynamics at much lower concentrations than that of the C16-fXXL lipopeptide | slowed down the bacterial growth dynamics at much lower concentrations than that of the C16-fXXL lipopeptide | slowed down the bacterial growth dynamics at much lower concentrations than that of the C16-fXXL lipopeptide | 20 mg/L (≈ 30.3 µM) | 50 mg/L (≈ 75.8 µM) | 30 mg/L (≈ 45.5 µM) | 20 mg/L (≈ 30.3 µM) | 30 | 30 | 5 (≈ 7.58 µM) | 20 (≈ 30.3 µM)
CCCCCCCCCCCCCC(=O)N[C@H](Cc1ccccc1)C(=O)N[C@@H](CCN)C(=O)N[C@@H](CCN)C(=O)N[C@@H](CC(C)C)C(N)=O [C14-fXXL, CH3(CH2)12C(O)-D-Phe-Dab-Dab-Leu-NH2] (Myristoyl-[dF][Dab][Dab]L-NH2) | 5 (≈ 7.27 µM) | n.d. (n.d. = not determined, i.e., the MIC value was greater than 50 µg/mL) | slowed down the bacterial growth dynamics at much lower concentrations than that of the C16-fXXL lipopeptide | slowed down the bacterial growth dynamics at much lower concentrations than that of the C16-fXXL lipopeptide | equally strong effect of slowing down the Gram-negative bacterial growth dynamics; also recorded: slowed down the bacterial growth dynamics at much lower concentrations than that of the C16-fXXL lipopeptide | 20 mg/L (≈ 29.1 µM) | n.d. (n.d. = not determined, i.e., the MIC value was greater than 50 µg/mL) | 30 mg/L (≈ 43.6 µM) | 20 mg/L (≈ 29.1 µM) | 30 | 30 | 5 (≈ 7.27 µM) | 10 (≈ 14.5 µM)
CCCCCCCCCCCCCCCC(=O)N[C@H](Cc1ccccc1)C(=O)N[C@@H](CCN)C(=O)N[C@@H](CCN)C(=O)N[C@@H](CC(C)C)C(N)=O [C16-fXXL, CH3(CH2)14C(O)-D-Phe-Dab-Dab-Leu-NH2, reference compound] (Palmitoyl-[dF][Dab][Dab]L-NH2) | 5 (≈ 6.98 µM) | n.d. (n.d. = not determined, i.e., the MIC value was greater than 50 µg/mL) |  |  |  | n.d. (n.d. = not determined, i.e., the MIC value was greater than 50 µg/mL) | no activity | n.d. (n.d. = not determined, i.e., the MIC value was greater than 50 µg/mL) | n.d. (n.d. = not determined, i.e., the MIC value was greater than 50 µg/mL) | 30 | 30 | 5 (≈ 6.98 µM) | 30 (≈ 41.9 µM)
